Where two headings read alike, the source gives them in different places.
Legend:
hA2b/CHO = hA2b/CHO (Homo sapiens (Human), UniProt P29275); experiment: cAMP inhibition assay in hA2b/CHO cells, 10 μM adenosine; format: cell-based;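 further: cells exposed to compound 30 min at 37 °C, then stimulated with adenosine a further 30 min, cAMP read after 60 min at room temperature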
Description: (§1) hA2a/CHO, hA2b/CHO, hA3/CHO and mA2a/CHO (Genscript) were plated at 5×10^3 cells/well into 384-well polystyrene plates at the day of experiment. Compounds were pre-incubated with cells for 30 min at 37° C., 5% CO2. Then 10 μM adenosine was added to the cells and incubated for 30 min at 37° C., 5% CO2. Detection reagent (CISBIO) was added and the plates were incubated for 60 min at room temperature. The signal was captured by Envision.

mA2a/CHO = mA2a/CHO (Mus musculus (Mouse), UniProt Q60613); experiment: cAMP inhibition assay in mA2a/CHO cells, 10 μM adenosine; format: cell-based;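 further: compounds preincubated 30 min at 37 °C before the adenosine challenge, then 30 min further stimulation, readout after 60 min detection reagent incubation at room temperature in 384-well plates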
Description: as §1

hA2a/CHO = hA2a/CHO (Homo sapiens (Human), UniProt P29274); experiment: cAMP inhibition assay in hA2a/CHO cells, 10 μM adenosine; format: cell-based;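 further: compounds added to cells 30 min ahead of adenosine, then a further 30 min at 37 °C with adenosine before cAMP detection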
Description: as §1

[1] = target: hADORA1/CHO (hA1 expressing) cells (Homo sapiens (Human), UniProt P30542); experiment: cell-based; settings: 10 μM adenosine
[2] = read-out: cAMP & FLIPR IC50 (nM) hA2b
[3] = read-out: cAMP & FLIPR IC50 (nM) mA2a
[4] = read-out: cAMP & FLIPR IC50 (nM) hA2a
[5] = FLIPR inhibition, read-out: cAMP & FLIPR IC50 (nM) hA1

Sequence of hADORA1/CHO (hA1 expressing) cells (P30542 whole entry): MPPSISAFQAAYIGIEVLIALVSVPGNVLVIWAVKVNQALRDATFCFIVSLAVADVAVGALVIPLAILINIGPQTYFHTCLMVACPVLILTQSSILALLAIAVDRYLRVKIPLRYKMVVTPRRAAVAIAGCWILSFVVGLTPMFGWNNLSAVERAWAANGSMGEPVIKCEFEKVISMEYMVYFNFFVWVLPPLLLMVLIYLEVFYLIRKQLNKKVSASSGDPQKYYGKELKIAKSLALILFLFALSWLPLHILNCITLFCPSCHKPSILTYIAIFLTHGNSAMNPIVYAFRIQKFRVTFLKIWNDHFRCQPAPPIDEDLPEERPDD
Sequence of mA2a/CHO (Q60613 whole entry): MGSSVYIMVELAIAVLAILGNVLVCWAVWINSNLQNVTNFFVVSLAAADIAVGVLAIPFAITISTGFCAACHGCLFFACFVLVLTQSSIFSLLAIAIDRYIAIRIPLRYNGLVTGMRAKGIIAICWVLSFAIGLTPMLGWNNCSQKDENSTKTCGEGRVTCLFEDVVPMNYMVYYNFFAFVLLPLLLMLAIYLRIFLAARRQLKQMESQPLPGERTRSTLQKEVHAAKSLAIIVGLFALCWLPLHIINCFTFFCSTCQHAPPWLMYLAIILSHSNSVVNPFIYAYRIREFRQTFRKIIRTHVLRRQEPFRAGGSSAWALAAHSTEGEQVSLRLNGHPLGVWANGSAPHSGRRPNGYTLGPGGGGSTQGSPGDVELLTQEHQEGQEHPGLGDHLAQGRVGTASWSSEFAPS
Sequence of hA2a/CHO (P29274 whole entry): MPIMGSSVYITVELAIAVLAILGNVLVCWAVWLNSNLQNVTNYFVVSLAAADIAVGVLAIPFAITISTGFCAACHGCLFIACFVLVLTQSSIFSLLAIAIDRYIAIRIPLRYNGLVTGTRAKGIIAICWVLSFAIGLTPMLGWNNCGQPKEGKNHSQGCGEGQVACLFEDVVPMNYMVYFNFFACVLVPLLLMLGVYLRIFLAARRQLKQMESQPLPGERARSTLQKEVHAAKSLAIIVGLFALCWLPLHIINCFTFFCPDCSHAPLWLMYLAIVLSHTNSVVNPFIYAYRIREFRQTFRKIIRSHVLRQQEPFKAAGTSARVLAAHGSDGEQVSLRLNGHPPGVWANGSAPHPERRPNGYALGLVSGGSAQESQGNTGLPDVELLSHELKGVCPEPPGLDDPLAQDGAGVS
Sequence of hA2b/CHO (P29275 whole entry): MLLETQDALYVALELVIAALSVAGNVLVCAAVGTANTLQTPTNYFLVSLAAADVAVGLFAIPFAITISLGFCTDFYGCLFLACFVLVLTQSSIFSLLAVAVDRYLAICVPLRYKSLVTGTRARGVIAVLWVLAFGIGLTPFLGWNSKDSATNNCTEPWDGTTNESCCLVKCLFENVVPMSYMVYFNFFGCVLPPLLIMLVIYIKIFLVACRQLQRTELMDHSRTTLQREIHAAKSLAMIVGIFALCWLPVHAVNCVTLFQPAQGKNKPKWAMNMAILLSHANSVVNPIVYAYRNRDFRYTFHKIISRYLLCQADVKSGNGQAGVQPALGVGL

## Cn1cc(-c2nc(CNC(=O)c3ncccc3OC(F)F)c(N)nc2-c2ccc(F)cc2)ccc1=O [Example 21, N-[[3-amino-5-(4-fluorophenyl)-6-(1-methyl-6-oxo-1,6-dihydropyridin-3-yl)pyrazin-2-yl]methyl]-3-(difluoromethoxy)pyridine-2-carboxamide]
hA2b/CHO; [2]
  IC50: 638 nM
mA2a/CHO; [3]
  IC50: 73 nM
hA2a/CHO; [4]
  IC50: 98 nM
[1]; [5]
  IC50: 18 nM

## Cn1cc(-c2nc(C(=O)NCc3ncccc3CO)c(N)nc2-c2ncco2)ccc1=O [Example 36, 3-amino-N-((3-(hydroxymethyl)pyridin-2-yl)methyl)-6-(1-methyl-6-oxo-1,6-dihydropyridin-3-yl)-5-(oxazol-2-yl)pyrazine-2-carboxamide]
hA2b/CHO; [2]
  IC50: 2530 nM
mA2a/CHO; [3]
  IC50: 419 nM
hA2a/CHO; [4]
  IC50: 180 nM
[1]; [5]
  IC50: 3010 nM

## Nc1nc(-c2ncco2)c(-c2ccc(=O)n(C3CC3)c2)nc1C(=O)NCc1c(F)cccc1F [Example 38, 3-amino-6-(1-cyclopropyl-6-oxo-1,6-dihydropyridin-3-yl)-N-[(2,6-difluorophenyl)methyl]-5-(1,3-oxazol-2-yl)pyrazine-2-carboxamide]
hA2b/CHO; [2]
  IC50: 59 nM
mA2a/CHO; [3]
  IC50: 5.3 nM
hA2a/CHO; [4]
  IC50: 2.4 nM
[1]; [5]
  IC50: 61 nM

## Cn1cc(-c2nc(C(=O)NCc3c(F)cccc3N3CCOCC3)c(N)nc2-c2ncco2)ccc1=O [Example 39, 3-amino-N-[[2-fluoro-6-(morpholin-4-yl)phenyl]methyl]-6-(1-methyl-6-oxo-1,6-dihydropyridin-3-yl)-5-(1,3-oxazol-2-yl)pyrazine-2-carboxamide]
hA2b/CHO; [2]
  IC50: 2120 nM
mA2a/CHO; [3]
  IC50: 3.3 nM
hA2a/CHO; [4]
  IC50: 7.8 nM
[1]; [5]
  IC50: 32 nM

## Nc1nc(-c2ncco2)c(-c2ccc(=O)n(C3COC3)c2)nc1C(=O)NCc1c(F)cccc1F [Example 42, 3-amino-N-[(2,6-difluorophenyl)methyl]-5-(1,3-oxazol-2-yl)-6-[1-(oxetan-3-yl)-6-oxo-1,6-dihydropyridin-3-yl]pyrazine-2-carboxamide]
hA2b/CHO; [2]
  IC50: 102 nM
mA2a/CHO; [3]
  IC50: 16 nM
hA2a/CHO; [4]
  IC50: 14 nM
[1]; [5]
  IC50: 51 nM

## Cc1nc(CNC(=O)c2nc(-c3ccc4nccn4c3)c(-c3ncco3)nc2N)cs1 [Example 44, 3-amino-6-(imidazo[1,2-a]pyridin-6-yl)-N-((2-methylthiazol-4-yl)methyl)-5-(oxazol-2-yl)pyrazine-2-carboxamide]
hA2b/CHO; [2]
  IC50: 2110 nM
mA2a/CHO; [3]
  IC50: 786 nM
hA2a/CHO; [4]
  IC50: 131 nM
[1]; [5]
  IC50: 10000 nM

## Nc1nc(-c2ncco2)c(-c2ccc3nccn3c2)nc1C(=O)NCc1cscn1 [Example 45, 3-amino-6-[imidazo[1,2-a]pyridin-6-yl]-5-(1,3-oxazol-2-yl)-N-[(1,3-thiazol-4-yl)methyl]pyrazine-2-carboxamide]
hA2b/CHO; [2]
  IC50: 912 nM
mA2a/CHO; [3]
  IC50: 566 nM
hA2a/CHO; [4]
  IC50: 94 nM
[1]; [5]
  IC50: 10000 nM

## CNc1cccnc1CNC(=O)c1nc(-c2ccc(=O)n(C)c2)c(-c2ncco2)nc1N [Example 46, 3-amino-6-(1-methyl-6-oxo-1,6-dihydropyridin-3-yl)-N-((3-(methylamino)pyridin-2-yl)methyl)-5-(oxazol-2-yl)pyrazine-2-carboxamide]
hA2b/CHO; [2]
  IC50: 1620 nM
mA2a/CHO; [3]
  IC50: 125 nM
hA2a/CHO; [4]
  IC50: 102 nM
[1]; [5]
  IC50: 488 nM

## CNc1ccc(F)c(CNC(=O)c2nc(-c3ccc(=O)n(C)c3)c(-c3ncco3)nc2N)n1 [Example 50, 3-amino-N-[[3-fluoro-6-(methylamino)pyridin-2-yl]methyl]-6-(1-methyl-6-oxo-1,6-dihydropyridin-3-yl)-5-(1,3-oxazol-2-yl)pyrazine-2-carboxamide]
hA2b/CHO; [2]
  IC50: 249 nM
mA2a/CHO; [3]
  IC50: 85 nM
hA2a/CHO; [4]
  IC50: 33 nM
[1]; [5]
  IC50: 90 nM

## COc1cc(F)ccc1CNC(=O)c1nc(-c2cc(C)nc(C)c2)c(-c2ccc(F)cc2)nc1N [Example 52, 3-amino-6-(2,6-dimethylpyridin-4-yl)-N-(4-fluoro-2-methoxybenzyl)-5-(4-fluorophenyl)pyrazine-2-carboxamide]
hA2b/CHO; [2]
  IC50: ≥ 10000 nM
mA2a/CHO; [3]
  IC50: 5960 nM
hA2a/CHO; [4]
  IC50: 89 nM
[1]; [5]
  IC50: 2630 nM

## COc1c(F)cccc1CNC(=O)c1nc(-c2cc(C)nc(C)c2)c(-c2ccc(F)cc2)nc1N [Example 54, 3-amino-6-(2,6-dimethylpyridin-4-yl)-N-(3-fluoro-2-methoxybenzyl)-5-(4-fluorophenyl)pyrazine-2-carboxamide]
hA2b/CHO; [2]
  IC50: ≥ 10000 nM
mA2a/CHO; [3]
  IC50: 2080 nM
hA2a/CHO; [4]
  IC50: 117 nM
[1]; [5]
  IC50: 1590 nM

## Cc1cc(-c2nc(C(=O)NCc3ccccc3C(F)F)c(N)nc2-c2ccc(F)cc2)cc(C)n1 [Example 55, 3-amino-N-(2-(difluoromethyl)benzyl)-6-(2,6-dimethylpyridin-4-yl)-5-(4-fluorophenyl)pyrazine-2-carboxamide]
hA2b/CHO; [2]
  IC50: 4440 nM
mA2a/CHO; [3]
  IC50: 1590 nM
hA2a/CHO; [4]
  IC50: 133 nM
[1]; [5]
  IC50: 413 nM

## COc1ccccc1CNC(=O)c1nc(-c2cc(C)nc(C)c2)c(-n2cccn2)nc1N [Example 56, 3-amino-6-(2,6-dimethylpyridin-4-yl)-N-(2-methoxybenzyl)-5-(1H-pyrazol-1-yl)pyrazine-2-carboxamide]
hA2b/CHO; [2]
  IC50: ≥ 10000 nM
mA2a/CHO; [3]
  IC50: 623 nM
hA2a/CHO; [4]
  IC50: 28 nM
[1]; [5]
  IC50: 940 nM

## Cc1cc(-c2nc(C(=O)NCc3ncccc3OC(F)F)c(N)nc2-c2ccc(F)cc2)cc(C)n1 [Example 57, 3-amino-N-((3-(difluoromethoxy)pyridin-2-yl)methyl)-6-(2,6-dimethylpyridin-4-yl)-5-(4-fluorophenyl)pyrazine-2-carboxamide]
hA2b/CHO; cAMP & FLIPR IC50 (nM) hA2b
  IC50: 1680 nM
mA2a/CHO; cAMP & FLIPR IC50 (nM) mA2a
  IC50: 278 nM
hA2a/CHO; cAMP & FLIPR IC50 (nM) hA2a
  IC50: 41 nM
[1]; cAMP & FLIPR IC50 (nM) hA1, FLIPR inhibition
  IC50: 142 nM

## Cn1cc(-c2nc(C(=O)NCc3ncccc3OC(F)F)c(N)nc2-c2ccc(F)cc2)ccc1=O [Example 58, 3-amino-N-((3-(difluoromethoxy)pyridin-2-yl)methyl)-5-(4-fluorophenyl)-6-(1-methyl-6-oxo-1,6-dihydropyridin-3-yl)pyrazine-2-carboxamide]
hA2b/CHO; [2]
  IC50: 62 nM
mA2a/CHO; [3]
  IC50: 81 nM
hA2a/CHO; [4]
  IC50: 19 nM
[1]; [5]
  IC50: 18 nM

## COc1cccnc1CNC(=O)c1nc(-c2cc(C)nc(C)c2)c(-c2ccc(F)cc2)nc1N [Example 71, 3-amino-6-(2,6-dimethylpyridin-4-yl)-5-(4-fluorophenyl)-N-((3-methoxypyridin-2-yl)methyl)pyrazine-2-carboxamide]
hA2b/CHO; [2]
  IC50: 1940 nM
mA2a/CHO; [3]
  IC50: 1250 nM
hA2a/CHO; [4]
  IC50: 64 nM
[1]; [5]
  IC50: 388 nM

## Cn1cc(-c2nc(C(=O)NCc3ccccc3OC(F)F)c(N)nc2-c2ccc(F)cc2)ccc1=O [Example 72, 3-amino-N-(2-(difluoromethoxy)benzyl)-5-(4-fluorophenyl)-6-(1-methyl-6-oxo-1,6-dihydropyridin-3-yl)pyrazine-2-carboxamide]
hA2b/CHO; [2]
  IC50: 23 nM
mA2a/CHO; [3]
  IC50: 8.1 nM
hA2a/CHO; [4]
  IC50: 1.3 nM
[1]; [5]
  IC50: 14 nM

## Cn1cc(-c2nc(C(=O)NCc3c(F)cccc3OC(F)F)c(N)nc2-c2ccc(F)cc2)ccc1=O [Example 73, 3-amino-N-(2-(difluoromethoxy)-6-fluorobenzyl)-5-(4-fluorophenyl)-6-(1-methyl-6-oxo-1,6-dihydropyridin-3-yl) pyrazine-2-carboxamide]
hA2b/CHO; [2]
  IC50: 8.1 nM
mA2a/CHO; [3]
  IC50: 4.2 nM
hA2a/CHO; [4]
  IC50: 0.4 nM
[1]; [5]
  IC50: 20 nM

## COc1ccccc1CNC(=O)c1nc(-c2cc(C)nc(C)c2)c(-n2nccc2C)nc1N [Example 74, 3-amino-6-(2,6-dimethylpyridin-4-yl)-N-(2-methoxybenzyl)-5-(5-methyl-1H-pyrazol-1-yl)pyrazine-2-carboxamide]
hA2b/CHO; [2]
  IC50: ≥ 10000 nM
mA2a/CHO; [3]
  IC50: 1950 nM
hA2a/CHO; [4]
  IC50: 44 nM
[1]; [5]
  IC50: 216 nM

## COc1ccccc1CNC(=O)c1nc(-c2cc(C)nc(C)c2)c(-n2ccc(C)n2)nc1N [Example 75, 3-amino-6-(2,6-dimethylpyridin-4-yl)-N-(2-methoxybenzyl)-5-(3-methyl-1H-pyrazol-1-yl)pyrazine-2-carboxamide]
hA2b/CHO; [2]
  IC50: ≥ 10000 nM
mA2a/CHO; [3]
  IC50: 157 nM
hA2a/CHO; [4]
  IC50: 6.1 nM
[1]; [5]
  IC50: 44 nM

## COc1ccccc1CNC(=O)c1nc(-c2ccc(=O)n(C(F)F)c2)c(-c2ccc(F)cc2)nc1N [Example 76, 3-amino-6-(1-(difluoromethyl)-6-oxo-1,6-dihydropyridin-3-yl)-5-(4-fluorophenyl)-N-(2-methoxybenzyl) pyrazine-2-carboxamide]
hA2b/CHO; [2]
  IC50: 76 nM
mA2a/CHO; [3]
  IC50: 22 nM
hA2a/CHO; [4]
  IC50: 4.2 nM
[1]; [5]
  IC50: 68 nM

## Cc1cc(-c2nc(C(=O)NCc3ccccc3F)c(N)nc2-c2ccc(F)cc2)cc(C)n1 [Example 78, 3-amino-6-(2,6-dimethylpyridin-4-yl)-N-(2-fluorobenzyl)-5-(4-fluorophenyl)pyrazine-2-carboxamide]
hA2b/CHO; [2]
  IC50: ≥ 10000 nM
mA2a/CHO; [3]
  IC50: 934 nM
hA2a/CHO; [4]
  IC50: 44 nM
[1]; [5]
  IC50: 2730 nM

## Cc1cc(-c2nc(C(=O)NCc3ccccc3Cl)c(N)nc2-c2ccc(F)cc2)cc(C)n1 [Example 79, 3-amino-N-(2-chlorobenzyl)-6-(2,6-dimethylpyridin-4-yl)-5-(4-fluorophenyl) pyrazine-2-carboxamide]
hA2b/CHO; [2]
  IC50: ≥ 10000 nM
mA2a/CHO; [3]
  IC50: 540 nM
hA2a/CHO; [4]
  IC50: 33 nM
[1]; [5]
  IC50: 597 nM

## Cc1cc(-c2nc(C(=O)NCc3ccccc3Br)c(N)nc2-c2ccc(F)cc2)cc(C)n1 [Example 80, 3-amino-N-(2-bromobenzyl)-6-(2,6-dimethylpyridin-4-yl)-5-(4-fluorophenyl) pyrazine-2-carboxamide]
hA2b/CHO; [2]
  IC50: 4170 nM
mA2a/CHO; [3]
  IC50: 158 nM
hA2a/CHO; [4]
  IC50: 44 nM
[1]; [5]
  IC50: 1400 nM

## Cc1cc(-c2nc(C(=O)NCc3ccccc3C)c(N)nc2-c2ccc(F)cc2)cc(C)n1 [Example 81, 3-amino-6-(2,6-dimethylpyridin-4-yl)-5-(4-fIuorophenyl)-N-(2-methylbenzyl) pyrazine-2-carboxamide]
hA2b/CHO; [2]
  IC50: ≥ 10000 nM
mA2a/CHO; [3]
  IC50: 301 nM
hA2a/CHO; [4]
  IC50: 98 nM
[1]; [5]
  IC50: 4750 nM

— patent publication US10898481B2 (priority 2018, dated 2021)
